Data from ChEMBL document CHEMBL1157433, “Design and synthesis of 4-HPR derivatives for rhabdoid tumors” (Bioorg Med Chem Lett, 2008).
The source made the active and inactive calls. The calls are words filed in the database; no cut-off is given here.

What was measured:
[1] = (§1) Cytotoxicity against human MON cells after 3 days by MTS assay; type: functional, cell-based
MON = experiment: as §1; type: functional, cell-based
[2] = Homo sapiens, MON, 72 h, read-out: IC50

CC1=C(/C=C/C(C)=C/C=C/C(C)=C/C(=O)Nc2ccc(O)cc2O)C(C)(C)CCC1
IC50 [1, 2]: 8 µM

CC1=C(/C=C/C(C)=C/C=C/C(C)=C/C(=O)Nc2ccc([N+](=O)[O-])cc2)C(C)(C)CCC1
IC50 [1, 2]: > 200 µM

CC1=C(/C=C/C(C)=C/C=C/C(C)=C/C(=O)Nc2ccc(O)c([N+](=O)[O-])c2)C(C)(C)CCC1
Activity (MON): inactive

CC1=C(/C=C/C(C)=C/C=C/C(C)=C/C(=O)O)C(C)(C)CCC1 [TRETINOIN]
IC50 [1, 2]: 100 µM

CC1=C(/C=C/C(C)=C/C=C/C(C)=C/C(=O)Nc2ccc(O)c(Cl)c2)C(C)(C)CCC1
IC50 [1, 2]: 12.5 µM

CC1=C(/C=C/C(C)=C/C=C/C(C)=C/C(=O)Nc2ccc(Cl)cc2)C(C)(C)CCC1
IC50 [1, 2]: > 200 µM

CC1=C(/C=C/C(C)=C/C=C/C(C)=C/C(=O)Nc2ccc(F)cc2)C(C)(C)CCC1
IC50 [1, 2]: 150 µM

CC1=C(/C=C/C(C)=C/C=C/C(C)=C/C(=O)Nc2ccc(Br)cc2)C(C)(C)CCC1
IC50 [1, 2]: 150 µM

CC1=C(/C=C/C(C)=C/C=C/C(C)=C/C(=O)Nc2ccc(I)cc2)C(C)(C)CCC1
Activity (MON): inactive

CC1=C(/C=C/C(C)=C/C=C/C(C)=C/C(=O)Nc2ccc(O)c(I)c2)C(C)(C)CCC1
IC50 [1, 2]: 3 µM

CC1=C(/C=C/C(C)=C/C=C/C(C)=C/C(=O)Nc2ccc(O)c(F)c2)C(C)(C)CCC1
IC50 [1, 2]: 8 µM

CC1=C(/C=C/C(C)=C/C=C/C(C)=C/C(=O)Nc2ccc(O)cc2)C(C)(C)CCC1 (stereo in doubt) [FENRETINIDE]
IC50 ([1]; mon, read-out: IC50): 9 µM

CC1=C(/C=C/C(C)=C/C=C/C(C)=C/C(=O)Nc2ccc(O)cc2)C(C)(C)CCC1 (stereo in doubt; 5g) [FENRETINIDE]
IC50 ([1]; mon, read-out: IC50): 19 µM

CC1=C(/C=C/C(C)=C/C=C/C(C)=C/C(=O)Nc2ccc(CCO)cc2)C(C)(C)CCC1
IC50 [1, 2]: > 50 µM

COc1ccc(NC(=O)/C=C(C)/C=C/C=C(C)/C=C/C2=C(C)CCCC2(C)C)cc1
IC50 ([1]; mon): Not Active

CC1=C(/C=C/C(C)=C/C=C/C(C)=C/C(=O)Nc2ccc(CO)cc2)C(C)(C)CCC1
IC50 [1, 2]: 25 µM
